Legend:
NE [1] = experiment: Bone marrow NE activity after repeated dosing, BALB/c mice; assay type: in vivo; conditions: for Reduction of NE activity vs vehicle / Change From Vehicle Control (%) NE: 7 days
Method: (§1) Briefly, animals were weighed and randomized into different treatment groups. In total, three different dosing levels of brensocatib were tested in each species and strain; each QD dosing level was equivalent to 1.5-times the matching daily BID dose. For BID dosing, the second daily dose was administered 8-h post the morning dose. C57BL/6 mice were dosed either BID or QD for 7 consecutive days at 0/0, 0.5/0.75, 2/3, and 20/30 mg/kg/day (BID/QD). BALB/c mice were dosed for 7 consecutive days at 0/0, 0.2/0.3, 2/3, and 20/30 mg/kg/day (BID/QD). SD rats were dosed for 9 consecutive days at 0/0, 0.2/0.3, 2/3, and 20/30 mg/kg/day (BID/QD). Wistar rats were dosed for 7 consecutive days at 0/0, 0.2/0.3, 2/3, and 20/30 mg/kg/day (BID/QD).
(§2) At the completion of the study, animals were sacrificed 16–24 h post their final dose. The hind limb bones (femurs and tibias) were collected at necropsy for bone marrow analysis of NSP activities by kinetic enzymatic assays ([Basso et al., 2022]). See section Quantification of Bone Marrow NSP Activities for details.
(§3) For the mice, each animal had the femurs and tibias of both hind limbs harvested. For the rat, the femur and tibia from a single hind limb per animal was harvested. Bones were kept on wet ice until processing for bone marrow collection. In brief, bone cutters were used to cut the epiphysis (knobby ends) off the long bones to expose the bone marrow filled cavity. Each bone cavity was then flushed with 5 mL/bone (mouse) or 10 mL/bone (rat) of ice-cold RPMI media through a […] and collected in a 50-mL conical tube. Cells were spun down at 2,500 × g at 4°C for 5 min and the supernatant was aspirated. After which, bone marrow cells were lysed with 1X red blood cell (RBC) lysis buffer (Abcam, ab204733) to eliminate contaminating RBCs and washed with PBS to remove any residual RBC lysis buffer. The resulting white blood cells (WBC) were subsequently lysed with 1% (v/v) Triton X-100 in PBS. Lysates were added to 96-well plates and stored at −80°C until NSP analyses.
(§4) Bone marrow lysates prepared as described above were diluted and plated onto 96-well assay plates to quantify NSP activities as described previously ([Basso et al., 2022]). Briefly, peptide substrates for NE (N-Methoxysuccinyl-Ala-Ala-Pro-Val-7-amido-4-methylcoumarin; Sigma; St. Louis, MO; Excitation/Emission at 350/450 nm), PR3 ((7-Methoxycoumarin-4-yl)acetyl-lysyl-(picolinoyl)-Tyr-Asp-Ala-Lys-Gly-Asp-N-3-(2-4-dinitrophenyl)-2-3-diaminopropyonyl-NH2); GenScript; Piscataway, NJ; Excitation/Emission at 340/430 nm), and CatG (N-Succinyl-Ala-Ala-Pro-Phe p nitroanilide; Sigma; Absorbance at 405 nm) were added at a final assay concentration of 100 μM, 40 μM, and 200 μM, respectively, and either fluorescence or absorbance was quantified using a Synergy microplate reader (BioTek; Winooski, VT). The specific NSP activity in each sample was calculated as the total activity minus the activity in the presence of a specific NSP inhibitor (if used), including elastase inhibitor (Abcam) for NE, sivelestat (Abcam) for PR3, and cathepsin G inhibitor I (Cayman Chemical; Ann Arbor, MI) for CatG. NSP concentrations were interpolated based on their activities relative to the standard curves created using active human NE protein (Sigma), active human PR3 protein (Sigma), and active human CatG protein (Sigma), respectively. Due to unavailability of commercial mouse and/or rat NE, PR3, and CatG proteins, the corresponding human proteins were used instead since their catalytic ability is considered to be conserved across species. A portion of each cell lysate sample was retained for protein quantification using a Pierce™ BCA Protein Assay Kit (Thermo Fisher). The NSP activities were normalized for the cell lysate protein concentrations.
(§5) The Pierce™ BCA Protein Assay Kit was used to measure the total protein of the samples after lysis to allow for subsequent normalization. […]

NE [2] = experiment: Bone marrow NE activity after repeated dosing, Sprague Dawley rats; assay type: in vivo; conditions: for Reduction of NE activity vs vehicle / Change From Vehicle Control (%) NE: 9 days
Method: as §1, §2, §3, §4, §5

PR3 = experiment: Bone marrow PR3 activity after repeated dosing, Sprague Dawley rats; assay type: in vivo; conditions: for Reduction of PR3 activity vs vehicle / Change From Vehicle Control (%) PR3: 9 days
Method: as §1, §2, §3, §4, §5

CatG = experiment: Bone marrow CatG activity after repeated dosing, Wistar rats; assay type: in vivo; conditions: for Reduction of CatG activity vs vehicle / Change From Vehicle Control (%) CatG: 7 days
Method: as §1, §2, §3, §4, §5

NSPs (NE, PR3, CatG) = experiment: PD onset study, bone marrow NSP activities (all three NSPs), C57BL/6 mice; assay type: in vivo; conditions: 5 mg/kg BID
Method: A 14-day PD onset study was performed in female C57BL/6 mice dosed BID. Mice were dosed by oral gavage either with vehicle (0 mg/kg) or 5 mg/kg brensocatib (BID; 10 mg/kg/day) for 1, 4, 7, 10, or 14 consecutive days. Plasma was collected from animals during the first 24 h of dosing at 1, 2, 8, 9, 10, and 24 h post the initial dose. Note the 8- and 24-h plasma samples were prior to the afternoon dose and the second day dose (if applicable), respectively. Plasma was used for PK analysis via LC-MS/MS. […]
Bone marrow lysates prepared as described above were diluted and plated onto 96-well assay plates to quantify NSP activities as described previously ([Basso et al., 2022]). Briefly, peptide substrates for NE (N-Methoxysuccinyl-Ala-Ala-Pro-Val-7-amido-4-methylcoumarin; Sigma; St. Louis, MO; Excitation/Emission at 350/450 nm), PR3 ((7-Methoxycoumarin-4-yl)acetyl-lysyl-(picolinoyl)-Tyr-Asp-Ala-Lys-Gly-Asp-N-3-(2-4-dinitrophenyl)-2-3-diaminopropyonyl-NH2); GenScript; Piscataway, NJ; Excitation/Emission at 340/430 nm), and CatG (N-Succinyl-Ala-Ala-Pro-Phe p nitroanilide; Sigma; Absorbance at 405 nm) were added at a final assay concentration of 100 μM, 40 μM, and 200 μM, respectively, and either fluorescence or absorbance was quantified using a Synergy microplate reader (BioTek; Winooski, VT). […]

[3] = design: method as in Chalmers et al., 2020; conditions: Phase 2 trial in NCFBE (WILLOW, NCT03218917), compared to placebo; ref Chalmers et al., 2020; cited from earlier work
[4] = BID highest dose (20 mg/kg/day)
[5] = highest dose level 20/30 (BID/QD) mg/kg/day

Cn1c(=O)oc2ccc(-c3ccc(C[C@@H](C#N)NC(=O)[C@@H]4CNCCCO4)cc3)cc21 [brensocatib]
Reduction of NE activity vs vehicle (NE [1]; [4]): 79% | Reduction of NE activity vs vehicle (NE [1]; QD highest dose (30 mg/kg/day)): 46% | Combined BID and QD percentage reduction, NE (NE [1]; [5]): 62% | Change From Vehicle Control (%) NE (NE [1]; oral BID 0.2 mg/kg/day, 16 h post final dose): +26% (p = 0.4425) | Change From Vehicle Control (%) NE (NE [1]; oral BID 2 mg/kg/day, 16 h post final dose): −23% (p = 0.5256) | Change From Vehicle Control (%) NE (NE [1]; oral BID 20 mg/kg/day, 16 h post final dose): −79% (p = 0.0008) | Change From Vehicle Control (%) NE (NE [1]; oral QD 0.3 mg/kg/day, 24 h post final dose): −3% (p = 0.9990) | Change From Vehicle Control (%) NE (NE [1]; oral QD 3 mg/kg/day, 24 h post final dose): −16% (p = 0.8297) | Change From Vehicle Control (%) NE (NE [1]; oral QD 30 mg/kg/day, 24 h post final dose): −46% (p = 0.0959) | Reduction of NE activity vs vehicle (NE [2]; [4]): 38% | Reduction of NE activity vs vehicle (NE [2]; QD highest dose (30 mg/kg/day)): 36% | Combined BID and QD percent reduction, NE (NE [2]; [5]): 37% | Change From Vehicle Control (%) NE (NE [2]; oral BID 0.2 mg/kg/day): +6% (p = 0.6846) | Change From Vehicle Control (%) NE (NE [2]; oral BID 2 mg/kg/day): −18% (p = 0.0243) | Change From Vehicle Control (%) NE (NE [2]; oral BID 20 mg/kg/day): −38% (p < 0.0001) | Change From Vehicle Control (%) NE (NE [2]; oral QD 0.3 mg/kg/day): −2% (p = 0.9973) | Change From Vehicle Control (%) NE (NE [2]; oral QD 3 mg/kg/day): −19% (p = 0.2196) | Change From Vehicle Control (%) NE (NE [2]; oral QD 30 mg/kg/day): −36% (p = 0.0078) | Reduction of PR3 activity vs vehicle (PR3; [4]): 68% | Reduction of PR3 activity vs vehicle (PR3; QD highest dose (30 mg/kg/day)): 72% | Combined BID and QD percent reduction, PR3 (PR3; [5]): 70% | Change From Vehicle Control (%) PR3 (PR3; oral BID 0.2 mg/kg/day): +23% (p = 0.8292) | Change From Vehicle Control (%) PR3 (PR3; oral BID 2 mg/kg/day): −31% (p = 0.6727) | Change From Vehicle Control (%) PR3 (PR3; oral BID 20 mg/kg/day): −68% (p = 0.0907) | Change From Vehicle Control (%) PR3 (PR3; oral QD 0.3 mg/kg/day): −34% (p = 0.4869) | Change From Vehicle Control (%) PR3 (PR3; oral QD 3 mg/kg/day): −59% (p = 0.0837) | Change From Vehicle Control (%) PR3 (PR3; oral QD 30 mg/kg/day): −72% (p = 0.0285) | Reduction of CatG activity vs vehicle (CatG; [4]): 32% | Reduction of CatG activity vs vehicle (CatG; QD highest dose (30 mg/kg/day)): 41% | Combined BID and QD percent reduction, CatG (CatG; [5]): 37% | Change From Vehicle Control (%) CatG (CatG; oral BID 0.2 mg/kg/day): −14% (p = 0.7146) | Change From Vehicle Control (%) CatG (CatG; oral BID 2 mg/kg/day): −16% (p = 0.6392) | Change From Vehicle Control (%) CatG (CatG; oral BID 20 mg/kg/day): −32% (p = 0.1106) | Change From Vehicle Control (%) CatG (CatG; oral QD 0.3 mg/kg/day): +5% (p = 0.9843) | Change From Vehicle Control (%) CatG (CatG; oral QD 3 mg/kg/day): −35% (p = 0.0605) | Change From Vehicle Control (%) CatG (CatG; oral QD 30 mg/kg/day): −41% (p = 0.0202) | Time to maximum reduction in NSP activities (observed) (NSPs (NE, PR3, CatG); visually observed): ~7 days | Time to maximum reduction in NSP activities (with modeling) (NSPs (NE, PR3, CatG); with modeling): ~8 days | time to first exacerbation [3]: prolonged

— article PMC10394516, “The pharmacokinetic profile of brensocatib and its effect on pharmacodynamic biomarkers including NE, PR3, and CatG in various rodent species” (Frontiers in Pharmacology, 2023)
